The values that follow come from patent US20030036111A1, “Mitochondrial protein” (priority 2001, published 2003).

“Also recorded” adds a separate entry of the source.

Assay [1] concerns the target T1, human DNC (mitochondrial deoxynucleotide carrier) (Homo sapiens, UniProt Q9HC21).
T1 construct: Amino acids are numbered from 1-320; made in house; host or cells: E. coli BL21(DE3), pET21b; inclusion bodies solubilized in sarkosyl, Ni-NTA purified
T1 sequence (Q9HC21 2-320 limits assumed): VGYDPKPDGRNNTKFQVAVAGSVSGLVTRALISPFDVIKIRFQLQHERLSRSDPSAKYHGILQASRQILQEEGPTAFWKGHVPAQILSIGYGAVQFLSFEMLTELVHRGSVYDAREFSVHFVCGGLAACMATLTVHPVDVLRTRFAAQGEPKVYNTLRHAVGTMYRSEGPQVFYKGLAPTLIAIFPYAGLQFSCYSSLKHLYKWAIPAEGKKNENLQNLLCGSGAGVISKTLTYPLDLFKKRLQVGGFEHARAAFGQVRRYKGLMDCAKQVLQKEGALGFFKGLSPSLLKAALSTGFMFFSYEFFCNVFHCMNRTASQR
The assay can be described thus: Inhibition of [α-35S]dATP uptake (dATP/ADP exchange) by external substrates and carrier inhibitors. The following applies: for Ki, competitive inhibition of [α-35 S]dATP uptake by external substrate: internal ADP or dADP 10 mM; for Ki: read-out: Ki, competitive inhibition of [α-35 S]dATP uptake by external substrate. The format is biochemical.

The target of assay [2] is T1, human DNC (mitochondrial deoxynucleotide carrier). The assay can be described thus: Dependence of DNC activity ([α-35S]dATP uptake) on internal substrate. The following applies: internal substrate 10 mM; for rate of [α-35 S]dATP uptake into proteoliposomes with internal substrate: 2 min. The format is biochemical. The method, then: FIG. 3. Time course of dATP/ADP exchange and substrate specificity of human DNC. (a) Time course of [α-35 S]dATP/ADP exchange in proteoliposomes reconstituted with the recombinant DNC. [α-35 S]dATP (1 mM) was added to proteoliposomes containing 10 mM ADP (⋄) or 10 mM NaCl (∇). (b) Dependence of DNC activity on internal substrate. Proteoliposomes were preloaded internally with various substrates (concentration 10 mM). Trans-port was started by addition of […] [α-35 S]dATP and stopped after 2 min. The values are means 6 SD of at least three experiments. (c) Inhibition of the rate of [α-35 S]dATP uptake by external substrates. Proteoliposomes were preloaded internally with 10 mM ADP. […] External substrates (concentration 0.5 mM) were added together with [α-35 S]dATP. The extents of inhibition (%) from a representative experiment are reported.
The recombinant protein in sarkosyl was reconstituted into liposomes in the presence of substrates (10). […] Transport was measured at 25° C. with internal and external pHs at 6.8. It was started by adding [α-35S]dATP or [^14C]-ADP and terminated after 2 min by addition of 100 mM of p-chloromercuribenzene sulfonate (10). Entrapped radioactivity was counted (10). The initial transport rate was calculated from the radioactivity taken up by proteoliposomes within 2 min (in the initial linear range). Other transport activities were assayed similarly (10).

[3] abbreviates: inhibitor 2 mM, internal 10 mM ADP, 2 min.
[4] abbreviates: inhibitor 0.1 mM, internal 10 mM ADP, 2 min.

As for `O=C(O)c1cccc(C(=O)O)c1C(=O)O` [1,2,3-benzenetricarboxylate], the “dATP/ADP exchange rate reduced to (remaining rate)” value in assay [1] (setting [3]) is given as 40%.
For `Nc1ncnc2c1ncn2[C@@H]1O[C@H](COP(=O)(O)OP(=O)(O)OP(=O)(O)O)[C@@H](O)[C@H]1O` [ATP], the “rate of [α-35 S]dATP uptake into proteoliposomes with internal substrate” value (from here on “rate … with internal substrate”) in assay [2] is given as “lower rate”.
As to `Nc1ccn([C@@H]2O[C@H](COP(=O)(O)OP(=O)(O)O)[C@@H](O)[C@H]2O)c(=O)n1` [CDP], in assay [2], the “rate … with internal substrate” value is “significant activities”.
For `Nc1nc2c(ncn2[C@@H]2O[C@H](COP(=O)(O)OP(=O)(O)O)[C@@H](O)[C@H]2O)c(=O)[nH]1` [GDP], the “rate … with internal substrate” value in assay [2] is on record as “significant activities; also recorded: rather poorly”.
As for `CCN1C(=O)C=CC1=O` [N-ethylmaleimide], the “inhibition of uptake of [α-35 S]dATP” value in assay [1] (setting [3]) was “No significant inhibition”.
Turning to `NC(=O)C1=CN([C@@H]2O[C@H](COP(=O)(O)OP(=O)(O)OC[C@H]3O[C@@H](n4cnc5c(N)ncnc54)[C@H](O)[C@@H]3O)[C@@H](O)[C@H]2O)C=CC1` [NADH], the “rate … with internal substrate” value in assay [2] is “virtually no activity”.
For the compound `O=c1ccn([C@@H]2O[C@H](COP(=O)(O)OP(=O)(O)O)[C@@H](O)[C@H]2O)c(=O)[nH]1` [UDP], the “rate … with internal substrate” value in assay [2] is reported as “significant activities”.
Regarding `N#CC(=Cc1ccc(O)cc1)C(=O)O` [a-cyano-4-hydroxycinnamate], the “inhibition of uptake of [α-35 S]dATP” value in assay [1] (setting [3]) is recorded as “No significant inhibition”.
For the compound `c1ccc(-c2ccnc3c2ccc2c(-c4ccccc4)ccnc23)cc1` [bathophenathroline], the “inhibition of uptake of [α-35 S]dATP” value in assay [1] (inhibitor 10 mM, internal 10 mM ADP, 2 min) was 41%.
Take `CO[C@H](C/C=C\C=C\CC/C=C/C[C@H](C)/C=C/C(=C\C(=O)O)CC(=O)O)/C(C)=C\C=C(/C)C(=O)O` [bongkrekate]: the “inhibition of uptake of [α-35 S]dATP” value in assay [1] (inhibitor 0.01 mM, internal 10 mM ADP, 2 min) is on record as 37%.
Take `CCCCC(C(=O)O)C(=O)O` [butylmalonate]: the “inhibition of uptake of [α-35 S]dATP” value in assay [1] (setting [3]) was “No significant inhibition”.
Turning to `C=C1[C@@H]2CC[C@H]3[C@]4(C)C[C@H](O[C@@H]5O[C@H](CO)[C@@H](OS(=O)(=O)O)[C@H](OS(=O)(=O)O)[C@H]5OC(=O)CC(C)C)CC(C(=O)O)(C(=O)O)[C@H]4CC[C@]3(C2)[C@H]1O` [carboxyatractyloside], the “inhibition of uptake of [α-35 S]dATP” value in assay [1] (setting [4]) amounted to 42%.
As to `O=C(O)CC(O)(CC(=O)O)C(=O)O` [citrate], the “rate … with internal substrate” value in assay [2] is “virtually no activity”.
As for `C=C1[C@@H](C)[C@H]2[C@H](Cc3ccccc3)NC(=O)[C@]23OC(=O)/C=C/[C@H](O)CCC[C@@H](C)C/C=C/[C@H]3[C@@H]1O` [cytochalasin B], the “inhibition of uptake of [α-35 S]dATP” value in assay [1] (inhibitor 0.033 mM, internal 10 mM ADP, 2 min) is listed as “No significant inhibition”.
For the compound `O=c1ccn([C@H]2C[C@H](O)[C@@H](COP(=O)(O)OP(=O)(O)O)O2)c(=O)[nH]1` [dUDP], in assay [1], the “Ki, competitive inhibition of [α-35 S]dATP uptake by external substrate” value is recorded as “higher”.
Same read-out and setting: the value for `O=c1ccn([C@H]2C[C@H](O)[C@@H](COP(=O)(O)OP(=O)(O)OP(=O)(O)O)O2)c(=O)[nH]1` [dUTP] was “higher”.
In the case of `Nc1ncnc2c1ncn2[C@H]1CC[C@@H](COP(=O)(O)OP(=O)(O)OP(=O)(O)O)O1` [ddATP], in assay [1], the Ki was 25 µM.
Same read-out and setting: then `Nc1ccn([C@H]2CC[C@@H](COP(=O)(O)OP(=O)(O)OP(=O)(O)O)O2)c(=O)n1` [ddCTP], with 70 µM.
As for `NCC(=O)O` [glycine], in assay [2], the “rate … with internal substrate” value is recorded as “virtually no activity”.
For the compound `O=S(=O)([O-])c1cc[c]([Hg][Cl])cc1` [p-chloromercuribenzene sulfonate], the “inhibition of uptake of [α-35 S]dATP” value in assay [1] (setting [4]) is recorded as “completely”.
`O=C(O)CC(C(=O)O)c1ccccc1` (stereo not shown) [phenylsuccinate]: in assay [1] (setting [3]), the “inhibition of uptake of [α-35 S]dATP” value was “No significant inhibition”.
Turning to `O=P(O)(O)OP(=O)(O)O` [pyrophosphate], the “rate … with internal substrate” value in assay [2] was “much lower activities”. Moreover, the “exchange relative to ADP exchange” value in assay [2] ([α-35 S]dATP uptake) is 22%.
With dADP, the “rate … with internal substrate” value in assay [2] is “highest rates”.
Still for that read-out and setting: the value for phosphate was “virtually no activity”.

The Ki is the dissociation constant of the complex between target and ligand, obtained from inhibition or displacement.
